Test results taken from ChEMBL document CHEMBL1201862, “PubChem BioAssay data set” (2004).
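Cultured in 96-well plates, cells were exposed to test compound for 48 hours across five concentrations. At the GI50, growth is halved.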 Active and inactive are the calls of the source. No stated cut-off is given here; in the data, active = GI50 up to about 1.1 µM and inactive = higher.

How the values were obtained:
Assay in all cases: inhibition of tumour cell growth, NCI panel, 48 h
M19-MEL = system: M19-MEL
HL-60 = system: HL-60
CCRF-CEM = system: CCRF-CEM
UACC-62 = system: UACC-62
SF-268 = system: SF-268
LOX IMVI = system: LOX IMVI
A498 = system: A498
SNB-19 = system: SNB-19
SF-539 = system: SF-539
OVCAR-4 = system: OVCAR-4
NCI-H226 = system: NCI-H226
NCI-H23 = system: NCI-H23
MOLT-4 = system: MOLT-4
U-251 = system: U-251
M14 = system: M14
DU-145 = system: DU-145
MDA-MB-231 = system: MDA-MB-231
T47D = system: T47D
MDA-N = system: MDA-N
XF498 = system: XF498

Row | Compound | GI50 (M19-MEL) | GI50 (HL-60) | GI50 (CCRF-CEM) | GI50 (UACC-62) | GI50 (SF-268) | GI50 (LOX IMVI) | GI50 (A498) | GI50 (SNB-19) | GI50 (SF-539) | GI50 (OVCAR-4) | GI50 (NCI-H226) | GI50 (NCI-H23) | GI50 (MOLT-4) | GI50 (U-251) | GI50 (M14) | GI50 (DU-145) | GI50 (MDA-MB-231) | GI50 (T47D) | GI50 (MDA-N) | GI50 (XF498)
1 | Oc1c(C(Nc2cccc3cccnc23)c2ccccc2)ccc2cccnc12 (configuration not stated) | 5.53 µM (inactive) | 2.2 µM (inactive) | 1.57 µM (inactive) | 21.6 µM (inactive) | 4.21 µM (inactive) | 3.94 µM (inactive) | 22.6 µM (inactive) | 4.69 µM (inactive) | 3.65 µM (inactive) | 17.5 µM (inactive) | 1.73 µM (inactive) | 5.43 µM (inactive) | 1.9 µM (inactive) |  |  |  |  |  |  | 
2 | Nc1nc(=O)c2c([nH]1)NCC(CNc1ccc(C(=O)N[C@@H](CCC(=O)O)C(=O)O)cc1)N2C=O (some centres not stated) [LEUCOVORIN CALCIUM] | > 125 µM (inactive) | 39.5 µM (inactive) | 39.5 µM (inactive) | > 125 µM (inactive) | > 125 µM (inactive) | > 125 µM (inactive) |  | > 125 µM (inactive) | > 125 µM (inactive) | > 125 µM (inactive) | 81.1 µM (inactive) | > 125 µM (inactive) | > 125 µM (inactive) | > 125 µM (inactive) |  |  |  |  |  | 
3 | Cc1ccc(-c2n[nH]c(=O)n2/N=C\c2ccccc2)cc1 |  | 70.1 µM (inactive) | > 80.9 µM (inactive) | 46.8 µM (inactive) | 28.4 µM (inactive) | > 100 µM (inactive) | 36.6 µM (inactive) | 46.3 µM (inactive) | 76.2 µM (inactive) | 61.5 µM (inactive) | 71.4 µM (inactive) | 68.9 µM (inactive) | > 79.6 µM (inactive) | 29.8 µM (inactive) | > 93.1 µM (inactive) | > 94.2 µM (inactive) | 60.5 µM (inactive) | 36.6 µM (inactive) | 51.1 µM (inactive) | 
4 | CC1=C[C@@H]2[C@@H](CC(CO)=C[C@H]3[C@@H]4C(C)(C)[C@]4(OCC(C)C)[C@H](OCC(C)C)[C@@H](C)[C@]23O)C1=O |  | 0.495 µM (active) | 0.741 µM (active) | 1.43 µM (inactive) | 3.43 µM (inactive) | 1.25 µM (inactive) | 1.08 µM (active) | > 6.01 µM (inactive) | 0.975 µM (active) | 4.28 µM (inactive) | 1.36 µM (inactive) | 1.91 µM (inactive) | 0.646 µM (active) | 1.5 µM (inactive) | 1.51 µM (inactive) | 3.2 µM (inactive) | 1.39 µM (inactive) | 2.16 µM (inactive) | 0.649 µM (active) | 
5 | O=S(O)CCCCCSSSCCCCCS(=O)O | 22.1 µM (inactive) | 24.7 µM (inactive) | 6.59 µM (inactive) | 22.8 µM (inactive) | 26.9 µM (inactive) | 27.1 µM (inactive) | > 100 µM (inactive) | > 100 µM (inactive) | 84.3 µM (inactive) | 52 µM (inactive) |  | 29.8 µM (inactive) | 4.81 µM (inactive) | 54.5 µM (inactive) | 43.7 µM (inactive) |  |  |  |  | 5.32 µM (inactive)
6 | COC(=O)C(=O)c1c2ccccc2n2ccc3c4ccccc4[nH]c3c12 |  | > 10 µM (inactive) | > 10 µM (inactive) | > 10 µM (inactive) | > 10 µM (inactive) | > 10 µM (inactive) |  | > 10 µM (inactive) | 3.27 µM (inactive) | > 10 µM (inactive) | > 10 µM (inactive) | > 10 µM (inactive) | > 10 µM (inactive) | > 10 µM (inactive) | > 10 µM (inactive) | > 10 µM (inactive) | 9.18 µM (inactive) | > 10 µM (inactive) | > 10 µM (inactive) | 
7 | O=C1CCC2=C(CCC2)N1CCc1ccc2c(c1)OCO2 |  | 7.62 µM (inactive) | 29.2 µM (inactive) | 65 µM (inactive) | 77.6 µM (inactive) | 59.6 µM (inactive) |  | 81.7 µM (inactive) | > 100 µM (inactive) | > 100 µM (inactive) | 20.5 µM (inactive) | 38 µM (inactive) | 15.4 µM (inactive) | 45.7 µM (inactive) | 92.9 µM (inactive) | > 100 µM (inactive) | > 100 µM (inactive) | 37 µM (inactive) | > 100 µM (inactive) | 
8 | Cc1ccn2c(=O)cc(-c3ccccc3)nc2c1 |  | > 100 µM (inactive) | > 100 µM (inactive) | 18.7 µM (inactive) | > 100 µM (inactive) |  |  | > 100 µM (inactive) | > 100 µM (inactive) | > 100 µM (inactive) | > 100 µM (inactive) | > 100 µM (inactive) | > 100 µM (inactive) | > 100 µM (inactive) | > 100 µM (inactive) | > 100 µM (inactive) | > 100 µM (inactive) | 49.7 µM (inactive) | > 100 µM (inactive) | 
9 | C=C1C(=O)O[C@@H]2[C@H](O)[C@@H](C)[C@@H]3C=CC(=O)[C@@]3(C)[C@H](OC(=O)C=C(C)C)[C@H]12 | 1.12 µM (active) | 0.2 µM (active) | 0.183 µM (active) | 0.625 µM (active) | 0.916 µM (active) | 0.457 µM (active) | 2.21 µM (inactive) | 5.55 µM (inactive) | 0.255 µM (active) | 1.98 µM (inactive) | 2 µM (inactive) | 1.35 µM (inactive) | 0.345 µM (active) | 1.49 µM (inactive) |  |  |  |  |  | 1.24 µM (inactive)
10 | COC(=O)C1=C(C(=O)OC)C23CC1C1C(C(=O)OC)=C(C(=O)OC)C12C1C=CC3C2C(=O)OC(=O)C21 (configuration not stated) | 50.9 µM (inactive) | 40.1 µM (inactive) | 40.4 µM (inactive) | 31.5 µM (inactive) | 48.3 µM (inactive) |  |  | 62.1 µM (inactive) | 23.7 µM (inactive) | 39.4 µM (inactive) |  | 37.8 µM (inactive) | 38.6 µM (inactive) | 48.2 µM (inactive) | 41.3 µM (inactive) |  |  |  |  | 45.9 µM (inactive)
11 | NC(CCCCO)C(=O)O (configuration not stated) |  | > 100 µM (inactive) | > 100 µM (inactive) | > 100 µM (inactive) | > 100 µM (inactive) | > 100 µM (inactive) | > 100 µM (inactive) | > 100 µM (inactive) |  | > 100 µM (inactive) | > 100 µM (inactive) | > 100 µM (inactive) |  | > 100 µM (inactive) | > 100 µM (inactive) | > 100 µM (inactive) | > 100 µM (inactive) | > 100 µM (inactive) |  | 
12 | COC(=O)CCC(=O)c1ccc2c(c1)CCC2 |  | > 100 µM (inactive) | > 100 µM (inactive) |  | > 100 µM (inactive) | > 100 µM (inactive) | > 100 µM (inactive) | > 100 µM (inactive) | > 100 µM (inactive) | > 100 µM (inactive) |  | > 100 µM (inactive) | > 100 µM (inactive) | > 100 µM (inactive) | > 100 µM (inactive) | > 100 µM (inactive) | > 100 µM (inactive) | > 100 µM (inactive) | > 100 µM (inactive) | 
13 | NC(=O)SCC(=O)Nc1ccc2ncccc2c1 |  | > 100 µM (inactive) | 29.6 µM (inactive) | 46.2 µM (inactive) | 49.1 µM (inactive) | 31.6 µM (inactive) | > 100 µM (inactive) | 40.6 µM (inactive) | 28.1 µM (inactive) | > 100 µM (inactive) | > 100 µM (inactive) | > 100 µM (inactive) |  | 21.5 µM (inactive) | > 100 µM (inactive) |  | > 100 µM (inactive) |  | 61.5 µM (inactive) | 
14 | N#CCCN(CCC#N)c1ccc(C(=N/c2ccc(Cl)cc2)/N=N/c2ccc(Cl)cc2)cc1 |  |  | 35.2 µM (inactive) | 10.9 µM (inactive) | 15.7 µM (inactive) |  | 19.9 µM (inactive) | 24.2 µM (inactive) | 17.8 µM (inactive) | 17.9 µM (inactive) | 17.3 µM (inactive) | 17.5 µM (inactive) | 22.5 µM (inactive) | 19 µM (inactive) | 21.5 µM (inactive) | 15.5 µM (inactive) | 19.5 µM (inactive) | 7.6 µM (inactive) | 19.5 µM (inactive) | 
15 | O=C(O)c1ccccc1CN1CCCC(C(=O)O)C1 (configuration not stated) |  |  |  | > 100 µM (inactive) | > 100 µM (inactive) | > 100 µM (inactive) | > 100 µM (inactive) | > 100 µM (inactive) | > 100 µM (inactive) | > 100 µM (inactive) | > 100 µM (inactive) | > 100 µM (inactive) | > 100 µM (inactive) | > 100 µM (inactive) | > 100 µM (inactive) | > 100 µM (inactive) | > 100 µM (inactive) | > 100 µM (inactive) | > 100 µM (inactive) | 
16 | N#Cc1c(N)nc(Nc2cccc3ccccc23)c(C#N)c1C#N |  | 1.88 µM (inactive) | 2.32 µM (inactive) | 4.18 µM (inactive) | 3.68 µM (inactive) | 2.53 µM (inactive) | 3.5 µM (inactive) | > 10 µM (inactive) | 2.78 µM (inactive) | > 10 µM (inactive) | > 10 µM (inactive) | 3.61 µM (inactive) | 3.03 µM (inactive) | 4.71 µM (inactive) | 6.61 µM (inactive) | > 10 µM (inactive) | 3.73 µM (inactive) | 8.09 µM (inactive) | 1.84 µM (inactive) | 
17 | Nc1ncnc2c1cnn2Cc1ccc(Cl)cc1 |  | > 100 µM (inactive) | > 100 µM (inactive) |  | > 100 µM (inactive) | > 100 µM (inactive) | 0.445 µM (active) | > 100 µM (inactive) |  | > 100 µM (inactive) | > 100 µM (inactive) | > 100 µM (inactive) | > 100 µM (inactive) | > 100 µM (inactive) | > 100 µM (inactive) | > 100 µM (inactive) | > 100 µM (inactive) | > 100 µM (inactive) | > 100 µM (inactive) | 
